Experimental data published in patent publication US5277897A, “In vivo enhancement of cellular accumulation of lipophilic cationic organometallic compounds by reduction of intramembrane potential” (Brigham and Women's Hospital, priority 1992, dated 1994).

Test: Effect of tetraphenylborate on the biodistribution of Tc-MIBI in rats (Table 2)
Assay type: in vivo
Settings: for Blood level / Heart uptake / Kidney uptake / Liver uptake / Lung uptake: 15 minutes; for tissue retention of Tc-MIBI, all tissues: 15 min
Procedure: The results are expressed as percent injected dose per gram of tissue. […] For this series of experiments, 50 microliters of dimethylsulfoxide lacking or containing 7.2 mM TPB were injected directly into the jugular vein of anesthetized rats immediately prior to the injection of Tc-MIBI (150 microliters; 100 microCuries per 200 microliters).
After 15 minutes, the animal was sacrificed by thoracotomy, organs extracted and placed in test tubes and counted for radioactivity in a standard well-type gamma counter. Tissue wet weights were obtained by subtracting fare weights from total weight of test tubes plus tissue.
Results are expressed as mean ±SEM of three determinations each.

[C-]#[N+]CC(C)(C)OC.[C-]#[N+]CC(C)(C)OC.[C-]#[N+]CC(C)(C)OC.[C-]#[N+]CC(C)(C)OC.[C-]#[N+]CC(C)(C)OC.[C-]#[N+]CC(C)(C)OC.[Tc] [Tc-MIBI, hexakis(methoxyisobutylisonitrile)technetium(I)]
Blood level (+TPB): 0.06 ± 0.01 % ID/gm | Heart uptake (+TPB): 1.45 ± 0.11 % ID/gm | Kidney uptake (+TPB): 5.81 ± 0.74 % ID/gm | Liver uptake (+TPB): 0.76 ± 0.40 % ID/gm | Lung uptake (+TPB): 1.07 ± 0.15 % ID/gm | tissue retention of Tc-MIBI, all tissues (+TPB): 9.15 % ID per gram of total tissue | Blood level (-TPB): 0.04 ± 0.01 % ID/gm | Heart uptake (-TPB): 1.92 ± 0.51 % ID/gm | Kidney uptake (-TPB): 3.38 ± 1.09 % ID/gm | Liver uptake (-TPB): 0.25 ± 0.15 % ID/gm | Lung uptake (-TPB): 0.45 ± 0.09 % ID/gm | tissue retention of Tc-MIBI, all tissues (-TPB): 6.04 % ID per gram of total tissue
